# pIC50, pKi: −log10 of the molar value. Where a SMILES comes first, the peptide text is derived from it. Bridges are numbered along the chain shown (N, C = ends). [ ]: non-standard residue; d: D form. Trp(6-Cl) = N[C@@H](Cc1c[nH]c2cc(Cl)ccc12)C(=O)O; R8 = C=CCCCCCC[C@@](C)(N)C(=O)O; hLeu = CC(C)CC[C@H](N)C(=O)O; S5 = C=CCCC[C@](C)(N)C(=O)O
# Tests used:
# Caspase 3 = Caspase 3 detection assay in SJSA1 cells; format: cell-based; conditions: 48 h, Caspase 3 activation over DMSO-treated cells; for caspase 0.3 uM: 0.3 uM peptide; for caspase 3 uM: 3 uM peptide; for caspase 10 uM: 10 uM peptide; for caspase 30 uM: 30 uM peptide
# MDMX = target: T1, MDMX (Homo sapiens, UniProt O15151); test: Competitive fluorescence polarization assay for MDMX; format: binding; conditions: competitive FP assay; for pIC50: read-out: IC50 (MDMX); for pKi: read-out: Ki (MDMX)
# T1 sequence (O15151 1-125): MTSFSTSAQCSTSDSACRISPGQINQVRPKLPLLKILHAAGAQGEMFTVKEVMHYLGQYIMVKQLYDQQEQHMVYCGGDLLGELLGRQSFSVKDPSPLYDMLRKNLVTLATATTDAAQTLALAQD
# SJSA-1 cells = test: Cell lysis by peptidomimetic macrocycles (LDH release); format: cell-based; conditions: 1 h at 37C
# MDM2 = MDM2 (Homo sapiens, UniProt Q00987); test: Competitive fluorescence polarization assay for MDM2; format: binding; conditions: competitive FP assay, MDM2; for pIC50: read-out: IC50 (MDM2); for pKi: read-out: Ki (MDM2)
# Sequence of MDM2 (Q00987 1-125): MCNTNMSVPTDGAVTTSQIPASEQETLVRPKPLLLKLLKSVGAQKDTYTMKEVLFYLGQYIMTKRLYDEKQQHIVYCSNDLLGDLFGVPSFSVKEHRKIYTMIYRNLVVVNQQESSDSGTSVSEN
SMILES,caspase 0.3 uM (Caspase 3),caspase 1 uM (Caspase 3; 1 uM peptide),caspase 3 uM (Caspase 3),caspase 10 uM (Caspase 3),caspase 30 uM (Caspase 3),pIC50 (MDMX),pKi (MDMX),6.25 uM % Lysed cells (1 h LDH) (SJSA-1 cells) [%],25 uM % Lysed cells (1 h LDH) (SJSA-1 cells) [%],50 uM % Lysed cells (1 h LDH) (SJSA-1 cells) [%],pIC50 (MDM2),pKi (MDM2)
"CC(=O)N[C@@H](C)C(=O)N[C@@H](C)C(=O)N[C@@H](CC(C)C)C(=O)N[C@H](C(=O)N[C@@H](Cc1ccccc1)C(=O)N[C@]1(C)CCCCCCC=CCCC[C@@](C)(C(=O)N[C@@H](CO)C(=O)N[C@@H](C)C(=O)N[C@@H](C)C(=O)N[C@@H](C)C(=O)N[C@H](C)C(N)=O)NC(=O)[C@H](CC2CCC2)NC(=O)[C@H](CCC(N)=O)NC(=O)[C@H](C)NC(=O)[C@H](Cc2c[nH]c3ccccc23)NC(=O)[C@H](Cc2ccc(O)cc2)NC(=O)[C@H](CCC(=O)O)NC1=O)[C@@H](C)O (single isomer, unassigned) [compound 359]",3,9,11,13,23,7.00 to 8.00,7.00 to 8.00,0,0,0,> 8.00,> 8.00
CC(=O)N[C@@H](CC(C)C)C(=O)N[C@H](C(=O)N[C@@H](Cc1ccccc1)C(=O)N[C@]1(C)CCCCCCC=CCCC[C@@](C)(C(=O)N[C@@H](CO)C(=O)N[C@@H](C)C(=O)N[C@@H](CC(C)C)C(N)=O)NC(=O)[C@H](CC(C)C)NC(=O)[C@H](CCC(N)=O)NC(=O)[C@H](C)NC(=O)[C@H](Cc2c[nH]c3ccccc23)NC(=O)[C@H](Cc2ccc(O)cc2)NC(=O)[C@H](C)NC1=O)[C@@H](C)O [compound 4] (Ac-LTF[R8]AYWAQL[S5]SAL-NH2; staple 4-11),,,9,37,35,6.00 to 7.00,7.00 to 8.00,−2,1,2,7.00 to 8.00,> 8.00
CC[C@H](C)[C@H](NC(=O)[C@H](C)NC(=O)[C@H](CO)NC(=O)[C@]1(C)CCCC=CCCCCCC[C@@](C)(NC(=O)[C@H](Cc2ccccc2)NC(=O)[C@@H](NC(=O)[C@H](CC(C)C)NC(C)=O)[C@@H](C)O)C(=O)N[C@@H](C)C(=O)N[C@@H](Cc2ccc(O)cc2)C(=O)N[C@@H](Cc2c[nH]c3ccccc23)C(=O)N[C@@H](C)C(=O)N[C@@H](CCC(N)=O)C(=O)N[C@@H](CC(C)C)C(=O)N1)C(N)=O [compound 8] (Ac-LTF[R8]AYWAQL[S5]SAI-NH2; staple 4-11),,,1,19,25,6.00 to 7.00,7.00 to 8.00,−1,1,1,6.00 to 7.00,7.00 to 8.00
CC(=O)N[C@@H](CC(C)C)C(=O)N[C@H](C(=O)N[C@@H](Cc1ccccc1)C(=O)N[C@]1(C)CCCCCC/C=C/CCC[C@@](C)(C(=O)N[C@@H](CO)C(=O)N[C@@H](C)C(=O)N[C@@H](C)C(N)=O)NC(=O)[C@H](CC(C)C)NC(=O)[C@H](CCC(N)=O)NC(=O)[C@H](C)NC(=O)[C@H](Cc2c[nH]c3cc(Cl)ccc23)NC(=O)[C@H](Cc2ccc(O)cc2)NC(=O)[C@H](C)NC1=O)[C@@H](C)O [compound 99] (Ac-LTF[R8]AY[Trp(6-Cl)]AQL[S5]SAA-NH2; staple (E) 4-11),1,,7,31,33,6.00 to 7.00,7.00 to 8.00,1.5,2,3.5,> 8.00,> 8.00
CC(=O)N[C@@H](CC(C)C)C(=O)N[C@H](C(=O)N[C@@H](Cc1ccccc1)C(=O)N[C@]1(C)CCCCCC/C=C\CCC[C@@](C)(C(=O)N[C@@H](CO)C(=O)N[C@@H](C)C(=O)N[C@@H](C)C(N)=O)NC(=O)[C@H](CCC(C)C)NC(=O)[C@H](CCC(N)=O)NC(=O)[C@H](C)NC(=O)[C@H](Cc2c[nH]c3ccccc23)NC(=O)[C@H](Cc2ccc(O)cc2)NC(=O)[C@H](C)NC1=O)[C@@H](C)O [compound 114] (Ac-LTF[R8]AYWAQ[hLeu][S5]SAA-NH2; staple (Z) 4-11),1,,6,28,34,6.00 to 7.00,7.00 to 8.00,3,4,9,7.00 to 8.00,> 8.00
CC(=O)N[C@@H](CC(C)C)C(=O)N[C@H](C(=O)N[C@@H](Cc1ccccc1)C(=O)N[C@]1(C)CCCCCC/C=C/CCC[C@@](C)(C(=O)N[C@@H](CO)C(=O)N[C@@H](C)C(=O)N[C@@H](C)C(N)=O)NC(=O)[C@H](CCC(C)C)NC(=O)[C@H](CCC(N)=O)NC(=O)[C@H](C)NC(=O)[C@H](Cc2c[nH]c3ccccc23)NC(=O)[C@H](Cc2ccc(O)cc2)NC(=O)[C@H](C)NC1=O)[C@@H](C)O [compound 115] (Ac-LTF[R8]AYWAQ[hLeu][S5]SAA-NH2; staple (E) 4-11),1,,10,26,32,6.00 to 7.00,7.00 to 8.00,0,−1,6,> 8.00,> 8.00
CC(=O)N[C@@H](CC(C)C)C(=O)N[C@H](C(=O)N[C@@H](Cc1ccccc1)C(=O)N[C@]1(C)CCCCCCC=CCCC[C@@](C)(C(=O)N[C@@H](CO)C(=O)N[C@H](C(=O)N[C@@H](CO)C(N)=O)C(C)C)NC(=O)[C@H](CC(C)C)NC(=O)[C@H](CCC(N)=O)NC(=O)[C@H](C)NC(=O)[C@H](Cc2c[nH]c3ccccc23)NC(=O)[C@H](Cc2ccc(O)cc2)NC(=O)[C@H](C)NC1=O)[C@@H](C)O [compound 121] (Ac-LTF[R8]AYWAQL[S5]SVS-NH2; staple 4-11),1,,5,19,30,6.00 to 7.00,7.00 to 8.00,1,1,7,> 8.00,> 8.00
CC(=O)N[C@@H](CC(C)C)C(=O)N[C@H](C(=O)N[C@@H](Cc1ccccc1)C(=O)N[C@]1(C)CCCCCCC=CCCC[C@@](C)(C(=O)N[C@@H](CO)C(=O)N[C@@H](C)C(=O)N[C@@H](CO)C(N)=O)NC(=O)[C@H](CC(C)C)NC(=O)[C@H](CCC(N)=O)NC(=O)[C@H](C)NC(=O)[C@H](Cc2c[nH]c3ccccc23)NC(=O)[C@H](Cc2ccc(O)cc2)NC(=O)[C@H](C)NC1=O)[C@@H](C)O [compound 122] (Ac-LTF[R8]AYWAQL[S5]SAS-NH2; staple 4-11),1,,2,15,30,6.00 to 7.00,7.00 to 8.00,1,0,6,> 8.00,> 8.00
